Results published in patent US20240216313A1, “ELAFIBRANOR DERIVATIVES AGONISTS OF PPAR FOR USE IN THE TREATMENT OF SEPSIS” (Genfit, priority 2021, published 2024).
Like-named read-outs stand apart in the source and are kept apart here.

Legend:
[1] = test system: CLP induced polymicrobial sepsis; experiment: Cecal ligation and puncture (CLP) model of polymicrobial sepsis: survival; type: in vivo, C57BL6J male mice; details: mice, 0.3 mg/kg p.o.
Description: This study aims to investigate the efficacy of Cpd.1 in cecal ligation and puncture (CLP) model in C57BL6J (BL6) male mice. The efficacy of the test compound was evaluated based on the survival rate of the animals within the study period.
C57BL6J male mice (supplier Janvier—France) at 9 weeks of age and weighing 23-25 g on arrival were anesthetized with 250 μL of xylazine/ketamine solution (20 mg/100 g body weight) by intraperitoneal route. A 1-1.5 cm abdominal midline incision was made, and the caecum was located and tightly ligated at half the distance between distal pole and the base of the cecum with 4-0 silk suture (mild grade). The caecum was punctured through-and-through once with a 21-gauge needle from mesenteric toward antimesenteric direction after medium ligation. A small amount of stool was extruded to ensure that the wounds were patent. Then the cecum was replaced in its original position within the abdomen, which was closed with sutures and wound clips. Mice were followed for body weight evolution and mortality rate until Day 6.
Cpd.1 or vehicle (Labrafil M 1944 CS, #3063, Gattefossé) was administrated at 0.3 mg/kg, p.o. for three days before CLP surgery. The day of CLP (day 0), Cpd.1 was administrated 1 h before surgery and pursued daily until day 6. Experiment was terminated at day 7.
Two groups of C57BL6J mice at the age of 9 weeks were treated as described above. • 1. […]

[2] = test system: LPS-induced endotoxemia; experiment: Preclinical model of endotoxemia: hepatic markers (total bilirubin, albumin) and TNFα in rat serum; type: in vivo, male Sprague Dawley rats; details: rats, 3 mg/kg/day oral gavage 3 days before LPS, blood 3 h after LPS
[3] = test system: THP1 differentiated macrophages; experiment: Macrophage activation: cytokine production by THP1 differentiated macrophages stimulated with LPS (E. coli O55:B5); type: cell-based, human; details: compound 24 h, then 100 ng/mL LPS E. coli 6 h
Description: (§1) In order to test the efficacy of the compounds on macrophage activation and pro-inflammatory cytokine production, 2.5×10^4 THP-1 cells were cultured in a 384-well plate and treated with 100 ng/mL PMA (#P8139, Sigma) for 24 h to induce differentiation into macrophages.
Then, medium was removed and FBS-deprived medium containing the compound of formula (I) was added for 24 h. Finally, THP1 macrophages were stimulated with 100 ng/mL LPS (E. coli O55:B5, #L4005, Sigma) for 6 h.

[4] = test system: HepG2 cells; experiment: Staurosporin-induced apoptosis in HepG2 cells (caspase 3/7 activity, Caspase Glo); type: cell-based, human; details: 16 h pre-treatment, then 10 μM staurosporin 4 h; for inhibition at 0.3 µM: Homo sapiens, HepG2, 0.3 μM, read-out: % Inhibition of caspase activity over mean Veh.
Description: In order to evaluate the effect of the compounds on human hepatocytes that undergo a cellular stress induced by staurosporin, the human hepatoblastoma-derived HepG2 cell line (ECACC, #85011430, Sigma-Aldrich) was cultured in high-glucose DMEM medium (#41965, Gibco, France) supplemented with 10% of fetal bovine serum (FBS, #10270, Gibco), 1% penicillin/streptomycin (#15140, Gibco), 1% sodium pyruvate (#11360, Gibco) and 1% MEM non-essential amino acids (#11140, Gibco) in a 5% CO2 incubator at 37° C.
To evaluate caspase 3/7 activity, which is a surrogate marker of apoptosis, 1.5×10^4 cells were plated in a 384-well plate (#781080, Greiner, France). After cell adherence (8 hours), cells were serum starved for 16 h in the presence of 0.3 μM of compounds or vehicle. Cpd.1 was also used at 3 and 10 μM. Thereafter, cells were treated with 10 μM staurosporin (#569397, Sigma-Aldrich, Germany) supplemented with compound for additional 4 hours before cell lysis and caspase activity measurement.
Caspase 3/7 activity was measured using Caspase Glow™ 3/7 assay (#G8093, Promega, USA). Luminescence was measured using a Spark microplate reader (#30086376, Tecan, USA). The amount of luminescence (RLU) directly correlates with caspase 3/7 activity.

[5] = test system: THP1 macrophages; experiment: Macrophage activation: MCP1 and TNFα secretion induced by LPS from Klebsiella in THP1 macrophages (HTRF); type: cell-based, human; details: 24 h, then LPS Klebsiella 6 h; for inhibition at 10 µM / inhibition at 1 µM: Homo sapiens; for inhibition at 10 µM: THP-1, 10 μM; for inhibition at 1 µM: THP-1, 1 μM
Description: as §1
Then, medium was removed and FBS-deprived medium containing 1 or 10 μM compound was added for 24 h. Finally, THP1 macrophages were stimulated for 6 h with 100 ng/mL LPS (Klebsiella pneumoniae, #L4268, Sigma-Aldrich).
Monocyte chemoattractant protein 1 (MCP1) and […] (TNFα) were measured in cell supernatants by Homogeneous Time Resolved Fluorescence (HTRF, #62[…] for TNFα, and 62HCCL2PEG for MCP1, Cisbio). Fluorescence was measured with Infinite 500 (#30019337, Tecan) to determine the concentration of cytokines.

[6] = read-out: % inhibition of MCP1 secretion over mean Veh.
[7] = read-out: % inhibition of TNFα secretion over mean Veh.

Question: How did the “side effect recorded after each administration” value [1] turn out when `COC(CCc1cc(C)c(OC(C)(C)C(=O)O)c(C)c1)c1ccc(OC(F)(F)F)cc1` (stereo not drawn) [Cpd. 1, 2-[4-(3-methoxy-3-(4-(trifluoromethoxy)phenyl)propyl)-2,6-dimethylphenoxy]-2-methylpropanoic acid] was run?
Answer: The value was “No side effect”.

Question: What about the “serum total bilirubin level compared to the vehicle condition” value [2] of the same compound?
Answer: The value was “completely restored the level of total bilirubin”.

Question: And the “reduction of TNFα secretion” value [3]?
Answer: The value was “potent at reducing TNFα”.

Question: And the “reduction of MCP1 secretion” value ([3]; all doses tested)?
Answer: The value was “overpassing the untreated condition for MCP1 secretion at all doses tested”.

Question: And the “reduction of staurosporin-induced caspase activity, dose dependence” value ([4]; 0.3, 3 and 10 μM)?
Answer: The value was “reduced caspase activity induced by staurosporin in a dose-dependent manner”.

Question: How did the inhibition at 10 µM [5, 6] turn out when `Cc1cc(CCC(=O)c2ccc(OC(F)(F)F)cc2)cc(C)c1OC(C)(C)C(=O)O` [Cpd. 2, 2-[2,6-dimethyl-4-[3-[4-(trifluoromethyloxy)phenyl]-3-oxo-propyl]phenoxy]-2-methylpropanoic acid] was run?
Answer: The inhibition at 10 µM was 106%.

Question: And the inhibition at 0.3 µM [4]?
Answer: Its inhibition at 0.3 µM is 70%.

Question: What does the source list for `Cc1cc(CCC(=O)c2ccc(C(F)(F)F)cc2)cc(C)c1OC(C)(C)C(=O)O` [Cpd. 3, 2-[2,6-dimethyl-4-[3-[4-(trifluoromethyl)phenyl]-3-oxo-propyl]phenoxy]-2-methylpropanoic acid]?
Answer: inhibition at 10 µM [5, 6]: 107%; inhibition at 10 µM [5, 7]: 20%

Question: How did the inhibition at 10 µM [5, 6] turn out when `CSc1ccc(C(CCc2cc(C)c(OC(C)(C)C(=O)O)c(C)c2)OC(C)C)cc1` (stereo not drawn) [Cpd. 5, 2-[2,6-dimethyl-4-[3-[4-(methylthio)phenyl]-3-isopropyloxypropyl]phenoxy]-2-methylpropanoic acid] was run?
Answer: The inhibition at 10 µM was 110%.

Question: For `Cc1cc(CCC(O)c2ccc(OC(F)(F)F)cc2)cc(C)c1OC(C)(C)C(=O)O` (stereo not drawn) [Cpd. 6, 2-(4-(3-hydroxy-3-(4-(trifluoromethoxy)phenyl)propyl)-2,6-dimethylphenoxy)-2-methylpropanoic acid], which inhibition at 10 µM [5, 6] is on record?
Answer: The inhibition at 10 µM was 103%.

Question: And the inhibition at 0.3 µM [4]?
Answer: Its inhibition at 0.3 µM is 43%.

Question: For `CON=C(CCc1cc(C)c(OC(C)(C)C(=O)O)c(C)c1)c1ccc(OC(F)(F)F)cc1` [Cpd. 7, 2-(4-(3-(methoxyimino)-3-(4-(trifluoromethoxy)phenyl)propyl)-2,6-dimethylphenoxy)-2-methylpropanoic acid], which inhibition at 10 µM [5, 6] is on record?
Answer: Its inhibition at 10 µM is 107%.

Question: And the inhibition at 10 µM [5, 7]?
Answer: Its inhibition at 10 µM is 42%.

Question: And the inhibition at 0.3 µM [4]?
Answer: Its inhibition at 0.3 µM is 66%.

Question: `CCOC(CCc1ccc(OC(C)(C)C(=O)O)c(Cl)c1Cl)c1sc(-c2ccc(C(F)(F)F)cc2)nc1C` (stereo not drawn) [Cpd. 9, 2-(2,3-dichloro-4-(3-ethoxy-3-(4-methyl-2-(4-(trifluoromethyl)-phenyl)thiazol-5-yl)propyl)phenoxy)-2-methylpropanoic acid] was tested. Which inhibition at 10 µM [5, 6] did it give?
Answer: The inhibition at 10 µM was 127%.

Question: What about the inhibition at 10 µM [5, 7] of the same compound?
Answer: The inhibition at 10 µM was 77%.

Question: For `COC(CCc1cc(C)c(OC(C)(C)C(=O)O)c(C)c1)c1ccc(SC)cc1` (stereo not drawn) [Cpd. 13, 2-[2,6-dimethyl-4-[3-[4-(methylthio)phenyl]-3-methoxypropyl]phenoxy]-2-methylpropanoic acid], which inhibition at 1 µM [5, 6] is on record?
Answer: The inhibition at 1 µM was 99%.

Question: And the inhibition at 1 µM [5, 7]?
Answer: Its inhibition at 1 µM is 0%.

Question: And the inhibition at 10 µM [5, 6]?
Answer: Its inhibition at 10 µM is 111%.

Question: And the inhibition at 10 µM [5, 7]?
Answer: The inhibition at 10 µM was 18%.

Question: And the “% Inhibition of caspase activity over mean Veh.” value ([4]; 0.3 μM)?
Answer: The value was 79%.

Question: `COC(CCc1cc(C)c(OC(C)(C)C(=O)O)c(C)c1)c1ccc(Br)cc1` (stereo not drawn) [Cpd. 14, 2-[2,6-dimethyl-4-[3-[4-bromophenyl]-3-methoxypropyl]phenoxy]-2-methylpropanoic acid] was tested. Which inhibition at 10 µM [5, 6] did it give?
Answer: The inhibition at 10 µM was 107%.

Question: What about the inhibition at 10 µM [5, 7] of the same compound?
Answer: Its inhibition at 10 µM is 28%.

Question: What about the inhibition at 0.3 µM [4] of the same compound?
Answer: The inhibition at 0.3 µM was 77%.

Question: How did the inhibition at 10 µM [5, 6] turn out when `CC(C)(Oc1ccc(CCNC(=O)c2ccc(Cl)cc2)cc1)C(=O)O` [Cpd. 17, bezafibrate, reference compound] was run?
Answer: The inhibition at 10 µM was 54%.

Question: How did the inhibition at 10 µM [5, 6] turn out when `CC[C@@H](Oc1cccc(CN(CCCOc2ccc(OC)cc2)c2nc3ccccc3o2)c1)C(=O)O` [Cpd. 18, pemafibrate, reference compound] was run?
Answer: Its inhibition at 10 µM is 123%.

Question: How did the inhibition at 10 µM [5, 6] turn out when `CCc1ccc(CCOc2ccc(CC3SC(=O)NC3=O)cc2)nc1` (stereo not drawn) [Cpd. 21, pioglitazone, reference compound] was run?
Answer: The inhibition at 10 µM was 121%.

Question: And the inhibition at 10 µM [5, 7]?
Answer: The inhibition at 10 µM was 19%.

Question: What about the inhibition at 0.3 µM [4] of the same compound?
Answer: The inhibition at 0.3 µM was 60%.

Question: What does the source list for `CN(CCOc1ccc(CC2SC(=O)NC2=O)cc1)c1ccccn1` (stereo not drawn) [Cpd. 22, rosiglitazone, reference compound]?
Answer: % inhibition of MCP1 secretion over mean Veh. ([5]; 1 μM): 79%; % inhibition of TNFα secretion over mean Veh. ([5]; 1 μM): 36%; % inhibition of MCP1 secretion over mean Veh. ([5]; 10 μM): 117%; % inhibition of TNFα secretion over mean Veh. ([5]; 10 μM): 11%

Question: What does the source list for `O=C(O)CCCc1cc2cc(Cl)ccc2n1S(=O)(=O)c1ccc2ncsc2c1` [Cpd. 23, lanifibranor, reference compound]?
Answer: inhibition at 10 µM [5, 6]: 126%; inhibition at 10 µM [5, 7]: 32%
